Results reported in patent US20260151446A1, “IMPROVED ORAL BIOAVAILABILITY FORMULATION FOR MITRAGYNA SPECIOSA (KRATOM)” (priority 2022, published 2026).

What was measured:
[1] = Proof of concept pharmacokinetic / bioavailability study, plasma mitragynine after single dose; assay type: in vivo, Sprague Dawley rats; conditions: male rats
Description: Once the capsule formulation was finalized, a proof of concept and safety study was carried out in Sprague Dawley rats. Male and female rats (250±25 g) were purchased from Envigo (Indianapolis, IN, USA) with indwelling jugular vein cannulas and acclimated ≥72 h in a temperature- and humidity-controlled vivarium on a 12 h light/dark cycle. Study protocols were approved by the Institutional Animal Care and Use Committee (IACUC) at the University of Florida, which is fully accredited by the Association for Assessment and Accreditation of Laboratory Animal Care International (AAALAC) and were written in accordance with the National Institutes of Health (NIH) Guide for the Care and Use of Laboratory Animals.
Rats were fasted for 10 h prior to dosing and an additional 2 h post-dose. Rats were dosed with one size 9 gelatin capsule with fill weights of 19.5±0.5 mg, (about 5.1 mg kratom or 2.3 mg mitragynine). […] Rats were connected to an automatic blood collection system (Bioanalytical Systems Inc., West Lafayette, IN, USA) and blood samples were taken at pre-dose, 0.08, 0.17, 0.25, 0.5, 0.75, 1, 2, 4, 6, 8, 12, 18, and 24 h. At the completion of the study, plasma samples were separated by centrifugation at 850×g for 10 min at 4° C. and stored at −20° C. until analysis.
To process plasma (rat or dog) samples for analysis, 20 μL aliquots of each sample were taken. To prepare calibration standards (CS), 2.0 μL of mix stock were added to 18 μL of blank plasma. This generated eight standards of 2.5, 5, 25, 50, 100, 150, 250, and 500 ng/mL, in the respective plasma. The same process was used to generate the lower limit of quantification (LLOQ) (2.5 ng/mL), low quality control (LQC) (6.25 ng/mL), medium quality control MQC (200 ng/mL) and high quality control (HQC) (400 ng/mL). After spiking, the CS and QC samples were vortex mixed for 5 min at 650 rpm. Analytes were precipitated using 100 μL methanol acidified with 0.05% formic acid containing 50 ng/mL IS in a 1:4 ratio. The samples were then vortex mixed for 5 min at 650 rpm before being transferred to a 96-well Millipore Solvinert 0.45 μm filter plate (Burlington, MA, USA) and centrifuged at 850×g for 2 min at 4° C.
A previously reported UPLC-MS/MS method for the quantification of eleven kratom alkaloids was used to analyze all samples^13. Briefly, the mobile phase composed of aqueous ammonium acetate buffer (2.5 mM, pH 3.5, (A)) and acetonitrile (B). The gradient started at 90% A and 10% B, and A was decreased to 75% by 3.5 min and then to 60% by 10 min. […] An Acquity UPLC® BEH C18 column (1.7 μm, 2.1×100 mm) with a VanGuard precolumn of the same chemistry was used for separation (Waters, Milford, MA, USA). The UPLC-MS/MS was a Waters™ Acquity Class-I chromatograph coupled with a Xevo TQ-S Micro triple quadrupole mass spectrometer (Waters, Milford, MA, USA).
The TargetLynx™ application of MassLynx™ 4.2 was used for data processing and quantification of the UPLC-MS/MS data (Waters, Milford, MA, USA). Phoenix Version 6.4 (Certara, Princeton, NJ, USA) was used for the non-compartmental analysis using a linear log interpolation. Graphpad Prism Version 8 (GraphPad Software, San Diego, CA, USA) was used to plot the concentration-time profiles for each dataset. R Studio version 1.4.1717 was used for statistical analysis (R Foundation for Statistical Computing, Vienna, Austria).

[2] = rats; delivered as a purified aqueous solution; cited from earlier work
[3] = single oral dose of 5 mg/kg mitragynine equivalent; female beagle dogs; cited from earlier work
[4] = mitragynine in plasma, oral 20 mg/kg

CC[C@@H]1CN2CCc3c([nH]c4cccc(OC)c34)[C@@H]2C[C@@H]1/C(=C\OC)C(=O)OC [Mitragynine, mitragynine]
Tmax ([1]; Sprague Dawley, rat, in vivo, mitragynine in plasma, oral 20 mg/kg): 24 ± 6 min
bioavailability ([1]; Sprague Dawley, rat, in vivo, mitragynine, oral 20 mg/kg): 37%
AUC/Dose ([1]; mitragynine in plasma, IV […]): 335 ± 16.5 µg·h/L/mg/kg
AUC/Dose [1, 4]: 122.4 ± 13.0 µg·h/L/mg/kg
Cmax/Dose [1, 4]: 22.7 ± 4.9 µg/L/mg/kg
bioavailability of mitragynine [2]: 17%
tolerability [3]: well tolerated
